Measured values taken from patent US20120095055A1, “HEXAHYDROCYCLOPENTYL[f]INDAZOLE 5-HYDROXYMETHYL ETHANOLS AND DERIVATIVES THEREOF AS SELECTIVE GLUCOCORTICOID RECEPTOR MODULATORS” (Merck Sharp & Dohme, Corp., priority 2009, published 2012).

Target: T1, human GR (Homo sapiens, UniProt P04150)
T1 construct: naturally expresses the human GR; endogenous in cells
T1 sequence (P04150 1-777): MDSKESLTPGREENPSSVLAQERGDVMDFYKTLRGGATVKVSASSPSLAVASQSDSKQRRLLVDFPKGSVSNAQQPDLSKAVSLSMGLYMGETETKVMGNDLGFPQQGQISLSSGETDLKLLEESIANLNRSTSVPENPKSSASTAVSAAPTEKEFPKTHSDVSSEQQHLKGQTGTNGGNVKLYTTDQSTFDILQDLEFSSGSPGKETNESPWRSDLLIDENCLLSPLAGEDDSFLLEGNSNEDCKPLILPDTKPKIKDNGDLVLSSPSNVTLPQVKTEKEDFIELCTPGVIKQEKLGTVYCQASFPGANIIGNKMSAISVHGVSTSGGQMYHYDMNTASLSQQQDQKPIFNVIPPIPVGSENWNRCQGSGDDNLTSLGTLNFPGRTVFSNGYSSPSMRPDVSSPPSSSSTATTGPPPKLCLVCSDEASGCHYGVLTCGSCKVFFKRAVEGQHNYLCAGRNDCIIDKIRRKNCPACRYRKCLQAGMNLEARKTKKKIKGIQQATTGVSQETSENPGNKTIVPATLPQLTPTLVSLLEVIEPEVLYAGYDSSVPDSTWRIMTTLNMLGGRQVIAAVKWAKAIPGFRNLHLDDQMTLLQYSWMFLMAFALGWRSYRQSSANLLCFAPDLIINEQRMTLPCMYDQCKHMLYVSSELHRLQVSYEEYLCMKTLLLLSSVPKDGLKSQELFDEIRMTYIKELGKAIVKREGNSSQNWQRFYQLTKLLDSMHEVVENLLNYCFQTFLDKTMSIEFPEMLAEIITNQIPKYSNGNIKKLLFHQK
Assay: Trans-Activation Modulation of Glucocorticoid Receptor Assay (GRAMMER), MMTV-LUC reporter in A549 cells
Assay type: cell-based
Details: for Transactivation A549 Cells GRAMMER Emax (%): Emax relative to the activity obtained with 300 nM dexamethasone; for EC50: inflection point (IP), MMTV-LUC reporter, read-out: Transactivation A549 Cells GRAMMER IP; for Emax: A549, Emax relative to the activity obtained with 300 nM dexamethasone, read-out: Transactivation A549 Cells GRAMMER Emax (%)
Text: This assay assesses the ability of test compounds to control transcription from the MMTV-LUC reporter gene in lung adenocarcinoma A549 cells or HeLa cells, a human […] cell line that naturally expresses the human GR. The assay measures induction of a modified MMTV LTR/promoter linked to the LUC reporter gene.
The routine transient assay consists of plating 7,000-25,000 cells/well of a white, clear-bottom 96-well plate. Alternatively, 384-well plates can be used at a cell concentration of 10,000/well. The media that the cells are plated in is “exponential growth medium” which consists of phenol red-free RPMI1640 containing 10% FBS, 4 mM L-glutamine, 20 mM HEPES, 10 ug/mL human insulin, and 20 ug/mL gentamicin. Incubator conditions are 37° C. and 5% CO2. The transfection is done in batch mode. The cells are trypsinized and counted to the right cell number in the proper amount of fresh media. It is then gently mixed with the FuGene6/DNA mix and plated onto the 96 or 384-well plate, all the wells receive 100 uL or 40 uL, respectively, of medium+lipid/DNA complex then incubated 37° C. overnight. The transfection cocktail consists of serum-free OptiMEM, FuGene6 reagent and DNA. The manufacturer's (Roche Biochemical) protocol for cocktail setup is as follows: The lipid to DNA ratio is approximately 2.5:1 and the incubation time is 20 min at room temperature. Sixteen to 24 hours after transfection, the cells are treated with dexamethasone to a final concentration of 10 nM as well as the compound of interest, such that final DMSO (vehicle) concentration is equal to or less than 1%. Each plate also contains samples that are treated with 10 nM dexamethasone alone, which is used as the 100% activity control. The cells are exposed to the compounds for 24 hours. After 24 hours, the cells are lysed by a Promega cell culture lysis buffer for approximately 30 min and then the luciferase activity in the extracts is assayed in the 96-well format luminometer. In 384-well format, Steady-Glo (Promega) or Steady-Lite (PerkinElmer) can be used by adding an equal volume of reagent to the media present in each well. Activity induced by 10 nM dexamethasone alone is set at 100% activity. Antagonist activity is calculated by determining the decrease in dexamethasone-induced activity in response to compound treatment relative to samples that were treated with dexamethasone alone. Results are expressed as % inhibition of 10 nM dexamethasone activity or as fold of 10 nM dexamethasone activity. This transactivation assay can be performed in an agonist and antagonist mode to identify these different activities.
Activity of test compounds is calculated as the Emax relative to the activity obtained with 300 nM dexamethasone. Activity of test compounds is calculated as the Emax relative to the activity obtained with 300 nM DEX. The exemplified tissue selective glucocorticoid receptor modulators of the present invention display agonist activity in this assay of greater than 5% and less than 100%, and maximal transactivation activity less then maximal transrepression activity. […]

SMILES	Transactivation A549 Cells GRAMMER Emax (%)	EC50	Emax
C[C@]12Cc3cnn(-c4ccc(F)cc4)c3C=C1CC[C@@]2(CO)CC(O)c1ccccn1 (single isomer, unassigned) [Example 1b]	56.0%	26.4 nM	
C[C@]12Cc3cnn(-c4ccc(F)cc4)c3C=C1CC[C@@]2(CO)CC(O)c1cc(F)cc(Cl)c1 (single isomer, unassigned) [Example 6b]	84.7%	124 nM	
C[C@]12Cc3cnn(-c4cccc(F)c4)c3C=C1CC[C@@]2(CO)CC(O)c1ccccn1 (single isomer, unassigned) [Example 19b]	24.2%	94.8 nM	
C[C@]12Cc3cnn(-c4ccccc4)c3C=C1CC[C@@]2(CO)CC(O)c1ccccn1 (single isomer, unassigned) [Example 23b]	47.7%	63.2 nM	
C[C@]12Cc3cnn(-c4ccc(F)cc4)c3C=C1CC[C@@]2(CO)CC(O)c1cccnc1 (single isomer, unassigned) [Example 15b]	39.3%	149 nM	
COc1cccnc1C(O)C[C@]1(CO)CCC2=Cc3c(cnn3-c3ccc(F)cc3)C[C@@]21C (single isomer, unassigned) [Example 21a]	32.4%	152 nM	
COc1cccnc1C(O)C[C@]1(CO)CCC2=Cc3c(cnn3-c3ccc(F)cc3)C[C@@]21C (single isomer, unassigned) [Example 21b]	64.8%	40.2 nM	
CC(O)(C[C@]1(CO)CCC2=Cc3c(cnn3-c3ccc(F)cc3)C[C@@]21C)c1cccnc1 (single isomer, unassigned) [Example 25b]	7.6%	401 nM	
Cc1cccc(C(O)C[C@]2(CO)CCC3=Cc4c(cnn4-c4ccc(F)cc4)C[C@@]32C)c1 (single isomer, unassigned) [Example 5a]		78.8 nM	65.5%
C[C@]12Cc3cnn(-c4ccc(F)cc4)c3C=C1CC[C@@]2(CO)CC(O)c1ccccc1Cl (single isomer, unassigned) [Example 3a]		38.8 nM	127%
C[C@]12Cc3cnn(-c4ccc(F)cc4)c3C=C1CC[C@@]2(CO)CC(O)C(F)(F)F (single isomer, unassigned) [Example 28a]		107 nM	60.4%
C[C@]12Cc3cnn(-c4ccc(F)cc4)c3C=C1CC[C@@]2(CO)CC(O)C1CCCCC1 (single isomer, unassigned) [Example 18a, 1-cyclohexyl-2-[(4αS)-1-(4-fluorophenyl)-5-(hydroxymethyl)-4α-methyl-1,4,4α,5,6,7-hexahydrocyclopenta[f]indazol-5-yl]ethanol]		22.3 nM	55.3%
C[C@]12Cc3cnn(-c4ccccc4)c3C=C1CC[C@@]2(CO)CC(O)c1cccnc1 (single isomer, unassigned) [Example 29a]	30.7%	168 nM	
C[C@]12Cc3cnn(-c4ccc(F)cc4)c3C=C1CC[C@@]2(CO)CC1OC(=O)c2ccccc21 (single isomer, unassigned) [Example 12a]		127 nM	47.4%
C[C@]12Cc3cnn(-c4ccc(F)cc4)c3C=C1CC[C@@]2(CO)CC(O)C1CC1 (single isomer, unassigned) [Example 20a, 1-cyclopropyl-2-[(4αS)-1-(4-fluorophenyl)-5-(hydroxymethyl)-4α-methyl-1,4,4α,5,6,7-hexahydrocyclopenta[f]indazol-5-yl]ethanol]	23.1%	187 nM	
C[C@]12Cc3cnn(-c4ccc(F)cc4)c3C=C1CC[C@@]2(CO)CC(O)c1ncccc1F (single isomer, unassigned) [Example 10b]	67.0%	12.4 nM	
COc1ccc(C(O)C[C@]2(CO)CCC3=Cc4c(cnn4-c4ccc(F)cc4)C[C@@]32C)nc1 (single isomer, unassigned) [Example 24b]	4.5%	1000 nM	
C[C@]12Cc3cnn(-c4ccc(F)cc4)c3C=C1CC[C@@]2(CO)CC(O)c1ccccc1Cl (single isomer, unassigned) [Example 3b]	130.3%	16.7 nM	
C[C@]12Cc3cnn(-c4ccc(F)cc4)c3C=C1CC[C@@]2(CO)CC1OC(=O)c2ccccc21 (single isomer, unassigned) [Example 12b]	54.2%	33.3 nM	
C[C@]12Cc3cnn(-c4ccc(F)cc4)c3C=C1CC[C@@]2(CO)CC1OC(=O)c2ccccc21 (stereo partly drawn) [Example 11, 3-{[(4αS,5R)-1-(4-fluorophenyl)-5-(hydroxymethyl)-4α-methyl-1,4,4α,5,6,7,7a,8-octahydrocyclopenta[f]indazol-5-yl]methyl}-2-benzofuran-1(3H)-one]		332 nM	41.8%
C[C@]12Cc3cnn(-c4ccc(F)cc4)c3C=C1CC[C@@]2(CO)CC(O)c1cccc(Cl)c1 (stereo partly drawn) [Example 8, 1-(3-chlorophenyl)-2-[(4αS,5R)-1-(4-fluorophenyl)-5-(hydroxymethyl)-4α-methyl-1,4,4α,5,6,7-hexahydrocyclopenta[f]indazol-5-yl]ethanol]		32.2 nM	56%
C[C@]12Cc3cnn(-c4ccc(F)cc4)c3C=C1CC[C@@]2(CO)CC(O)C1CCCCC1 (single isomer, unassigned) [Example 18b, 1-cyclohexyl-2-[(4αS)-1-(4-fluorophenyl)-5-(hydroxymethyl)-4α-methyl-1,4,4α,5,6,7-hexahydrocyclopenta[f]indazol-5-yl]ethanol]	56.2%	59.6 nM	
C[C@]12Cc3cnn(-c4ccccc4)c3C=C1CC[C@@]2(CO)CC(O)c1cccnc1 (single isomer, unassigned) [Example 29b]	13.7%	121 nM	
C[C@]12Cc3cnn(-c4cccc(F)c4)c3C=C1CC[C@@]2(CO)CC(O)c1ccccn1 (single isomer, unassigned) [Example 19a]		41.9 nM	43.7%
C[C@]12Cc3cnn(-c4ccc(F)cc4)c3C=C1CC[C@@]2(CO)CC(O)c1cc(F)cc(F)c1 (stereo partly drawn) [Example 9, 1-(3,5-difluorophenyl)-2-[(4αS,5R)-1-(4-fluorophenyl)-5-(hydroxymethyl)-4α-methyl-1,4,4α,5,6,7-hexahydrocyclopenta[f]indazol-5-yl]ethanol]		3.2 nM	80.3%
C[C@]12Cc3cnn(-c4ccc(F)cc4)c3C=C1CC[C@@]2(CO)CC(O)c1cc(F)cc(Cl)c1 (single isomer, unassigned) [Example 6a]	62.4%	30.5 nM	
C[C@]12Cc3cnn(-c4cccc(F)c4)c3C=C1CC[C@@]2(CO)CC(O)c1cccnc1 (single isomer, unassigned) [Example 27b]	15.4%	634 nM	
